{"source": "a melting point compilation (Tetko et al.; mined from patent text by program, amines drawn as free bases though some values may be those of a salt)"}
{"units": {"melting point": "°C"}}
{"smiles": "O=C(NCC1CCN(CC2(C(=O)O)CC2)CC1)N1C(=O)C2(CCCC2)c2ccccc21", "melting point": 186}
{"smiles": "O=C(O)c1ccc2c(c1)C(=O)c1ccccc1OC2", "melting point": "264 to 269"}
{"smiles": "CCOC(=O)c1ccc(-c2ncc(C#Cc3ccccc3)s2)s1", "melting point": "137 to 141"}
{"smiles": "Cc1ccc(C)c(OCCCC(C)(C)C(=O)Nc2cccc(C3=NC(C)(C)CO3)c2C)c1", "melting point": "51 to 52"}
{"smiles": "CS(=O)(=O)N(Cc1cccnc1)Cc1ccc(Cl)cc1Cl", "melting point": "78 to 80"}
{"smiles": "C=CCOC(=O)c1c(C)c(OC)cc(O[Si](C)(C)C(C)(C)C(C)C)c1C=O", "melting point": "81 to 82"}
{"smiles": "CN1c2ccc(-c3cccc4ccccc34)cc2S(=O)(=O)c2cc(-c3cccc4ccccc34)ccc21", "melting point": "221 to 225"}
{"smiles": "CC1CC2C3CCC4=CC(=O)C=CC4(C)C3=CCC2(C)C1C(=O)CN1CCN(c2cc(N3CCC4(CC3)OCCO4)nc(N3CCC4(CC3)OCCO4)n2)CC1", "note": "(configuration not stated)", "melting point": "156 to 174"}
{"smiles": "CO[C@@H]1CN(CCCNc2nccc(=O)[nH]2)CC[C@@H]1NC(=O)c1cc(Cl)c(N)c2c1OC(C)(C)C2", "melting point": 164}
{"smiles": "COC(=O)C1Cc2c([nH]c3ccccc23)C(C)N1C(=S)SC", "note": "(configuration not stated)", "melting point": "229 to 230"}
{"smiles": "O=C(O)CCC(=O)NCc1ccccc1", "melting point": 138}
{"smiles": "N#Cc1cnn2c1N(C(=O)CN1CCN(C(=O)Nc3ccccc3)CC1)CC=C2c1cccc(C(F)(F)F)c1", "melting point": "184 to 187"}
{"smiles": "COc1ccc(C(=O)Nc2c(Cl)cncc2Cl)cc1OC1CC=CC1", "melting point": "193 to 195"}
{"smiles": "COC(=O)C[C@H](Cc1ccc(-c2ccccc2)cc1)NCP(=O)(OC)OC", "melting point": 67}
{"smiles": "COC(=O)c1ccc(/C=C(\\C)c2ccc3c(c2)C(C)(C)CCO3)cc1", "melting point": "92 to 95"}
{"smiles": "Cc1ccc2c(c1)OC(C(F)(F)F)C(C(=O)O)=C2", "note": "(configuration not stated)", "melting point": "202 to 203"}
{"smiles": "CCN1c2ncccc2C(=O)Nc2c(C)cc(N3CCC[C@H]3CO)nc21", "melting point": "238 to 240"}
{"smiles": "CCCCCCCNC(=O)Nc1ccc(F)cc1C(=O)NC1CCN(C(c2ccccc2)c2ccccc2)CC1", "melting point": "208 to 210"}
{"smiles": "Cc1c(-c2ccncc2)[nH]c(-c2ccncc2)c1C(N)=O", "melting point": "212 to 215"}
{"smiles": "N#CN=C(N)NCCCCNC(=O)[C@@H](Cc1ccccc1)NC(=O)CCCC(=O)O", "melting point": 63}
{"smiles": "CCOC(=O)C(Cc1cccc2cccnc12)(NC=O)C(=O)OCC", "melting point": "120 to 122"}
{"smiles": "Cc1cccc(-c2nc(-c3cccc(C)c3)nc(-c3cccc(C)c3)n2)c1", "melting point": "151 to 152"}
{"smiles": "NC(=O)c1ccc(F)c2c1CC(NCCCc1c[nH]c3ccc(F)cc13)CO2", "note": "(configuration not stated)", "melting point": 122}
{"smiles": "C#CCOc1ccc2c(C)nnc(Cl)c2c1", "melting point": "169 to 171"}
{"smiles": "O=C(NCC(F)(F)F)C1c2cc(F)ccc2-c2c(CCCCN3CCC(N4C(=O)c5ccccc5C4=O)CC3)cc(F)cc21", "note": "(configuration not stated)", "melting point": "186 to 188"}
{"smiles": "O=C(Cc1ccc(OCc2cccc(C(=O)O)c2)cc1)NC1(C(=O)O)Cc2ccc(-c3ccc(Cl)cc3)cc2C1", "note": "(configuration not stated)", "melting point": "220 to 222"}
{"smiles": "O=CC1=CC(c2ccccc2)(c2ccccc2)CCC1=O", "melting point": 126}
{"smiles": "O=C(c1ccccc1F)c1cc(Cl)ccc1C=CCN1C(=O)c2ccccc2C1=O", "melting point": 117}
{"smiles": "COC(=O)COc1ccc(C(=O)NN(C)C(=O)OC(C)(C)C)cc1", "melting point": "158 to 159"}
{"smiles": "CC(C)n1nc(-c2c(-c3ccccc3)nn3ccc(OCCN4CCOCC4)cc23)ccc1=O", "melting point": "160 to 162"}
{"smiles": "Cn1c(=O)sc2cc(C(=O)CSCCC(=O)O)c(Cl)cc21", "melting point": "120 to 121"}
{"smiles": "Cc1c(Br)c2c(c3c1C(c1ccc(C(C)C)cc1)CO3)CCC2", "note": "(configuration not stated)", "melting point": "127 to 128"}
{"smiles": "COc1ccc(NC(=O)c2ccc([N+](=O)[O-])cc2N)cc1", "melting point": "193 to 197"}
{"smiles": "COC(=O)c1cc(N)c(N2CCCCC2)c(S(C)(=O)=O)c1", "melting point": "178 to 179"}
{"smiles": "NC(=S)c1c(Cl)cncc1Cl", "melting point": "186 to 187"}
{"smiles": "CCOC(=O)C1Cc2c([nH]c3ccccc23)C(c2ccc(N(C)C)cc2)N1", "note": "(configuration not stated)", "melting point": 170}
{"smiles": "CCOc1nc2cccc(C(=O)OC(C)OC(=O)OC3CCCCC3)c2n1Cc1ccc(-c2ccccc2-c2nc(=O)o[nH]2)cc1", "note": "(configuration not stated)", "melting point": "108 to 109"}
{"smiles": "CC(Cc1ccc(-c2ncc(NC(=O)C(F)(F)F)o2)cc1)N1CC(c2cccc(Cl)c2)OC1=O", "note": "(configuration not stated)", "melting point": "163 to 164"}
{"smiles": "CCCc1ccc2nc(C(=O)OCC)cn2n1", "melting point": "54 to 54.5"}
{"smiles": "CCCC(=O)N(Cc1ccc(OC(F)(F)F)cc1)c1cc(Cl)cc(-c2nnn[nH]2)c1", "melting point": 179}
{"smiles": "CCCn1nc(C(C)C)c(C(=O)OCOC(=O)C(C)(C)C)c1Cc1ccc(-c2ccccc2-c2nnn(C(c3ccccc3)(c3ccccc3)c3ccccc3)n2)cc1", "melting point": "128 to 130"}
{"smiles": "CS(=O)(=O)Nc1cc2c(cc1Oc1ccccc1)C(NS(C)(=O)=O)C=C2", "note": "(configuration not stated)", "melting point": 154}
{"smiles": "CC=CN(C=CC)c1ccc2[nH]c3cnc(C(=O)OCC)cc3c2c1", "melting point": "235 to 238"}
{"smiles": "CNC(=O)NN=C(c1ccc([N+](=O)[O-])cc1)c1cc2c(cc1C[C@H](C)O)OCO2", "melting point": 238}
{"smiles": "CC(=O)N1c2ccc(O)cc2C(C)=CC1(C)C", "melting point": "214 to 216"}
{"smiles": "NC(=S)CCc1ccc([N+](=O)[O-])cc1", "melting point": "157 to 158"}
{"smiles": "O=C(NO)C1C2CCC(CC2)C1S(=O)(=O)c1ccc(Oc2ccccc2)cc1", "note": "(configuration not stated)", "melting point": "89.9 to 91.8"}
{"smiles": "O=[N+]([O-])c1ccc2c(c1)S(=O)(=O)NCN2C1CC1", "melting point": "198 to 201"}
{"smiles": "CC(CNc1ccc(C(=O)O)cc1)Oc1ccc(Cl)c2ccccc12", "note": "(configuration not stated)", "melting point": "165 to 168"}
{"smiles": "Cc1nc2cnccc2n1-c1ccc(Cn2c(=O)oc3ccccc32)cc1", "melting point": "84 to 87"}
{"smiles": "Cc1cccc(-c2[nH]c(C(C)C)nc2-c2cccc(-c3ccc4c(c3)CCCS4)c2)n1", "melting point": "115 to 117"}
{"smiles": "COC(=O)CCCCCCCCCCCCCCCCCCCCCN1C(=O)c2ccccc2C1=O", "melting point": "88.5 to 90.5"}
{"smiles": "COc1ccc(Nc2nc(Cl)c3sccc3n2)c(C)c1", "melting point": "151 to 153"}
{"smiles": "Nc1ncc2ncn(CCC(CO)COC(=O)c3ccccc3)c2n1", "note": "(configuration not stated)", "melting point": "116 to 118"}
{"smiles": "C=CCn1c(=O)n(CCCCO)c2nc(N)nc(Cl)c21", "melting point": "132 to 133"}
{"smiles": "O=C(NCC1CC2CCC1C2)n1cc(F)c(=O)[nH]c1=O", "note": "(configuration not stated)", "melting point": "165 to 166"}
{"smiles": "CCCCc1ccc(-c2ccc(CCc3ccc(Cl)cc3)cc2)c(F)c1", "melting point": 49}
{"smiles": "Clc1ccc2c(c1)C(c1ccccn1)=NCc1ccccc1-2", "melting point": "153 to 155"}
{"smiles": "c1cc(-c2cnc(-c3cccc(-c4cnco4)n3)o2)cc(-c2cnc(-c3cccc(-c4cnco4)n3)o2)c1", "melting point": "> 250"}
{"smiles": "CS(=O)(=O)c1ccc(-c2nn(Cc3ccccc3)c(=S)cc2-c2ccc(F)cc2)cc1", "melting point": 182}
{"smiles": "CN(c1ccoc1)c1n[nH]c2ncnc(Nc3cccc(Cl)c3)c12", "melting point": "207 to 209"}
{"smiles": "CCOC(=O)c1cn(-c2nc(NC(C)(C)C)c(F)cc2F)c2c(Cl)c(F)c(F)cc2c1=O", "melting point": "203 to 205"}
{"smiles": "COC(=O)C(CO)NC(=O)c1cc2cc(Cl)ccc2[nH]1", "note": "(configuration not stated)", "melting point": "153 to 155"}
{"smiles": "O=C(O)Cc1ccc(OCCNC(=O)C2Cc3ccccc3N2S(=O)(=O)c2ccc(-c3cccc(C(F)(F)F)c3)c(F)c2)cc1", "note": "(configuration not stated)", "melting point": 82}
{"smiles": "COc1cc(CCc2ccc(O)c(O)c2)cc(OC)c1OC", "melting point": "113 to 115"}
{"smiles": "COC(=O)C(C)(C)C(=O)Oc1ccc(C(=O)c2ccccc2)cc1", "melting point": "121 to 122"}
{"smiles": "O=C(O)c1ccc2c(c1)C(=O)c1cc3c(cc1OC2)OCO3", "melting point": "320 to 321"}
{"smiles": "COc1ccc(S(=O)(=O)c2ccnc(C)c2C)cc1", "melting point": "84 to 85"}
{"smiles": "O=C(O)C1Cc2c(c(Cl)cc3c(-c4cccc(F)c4)noc23)O1", "note": "(configuration not stated)", "melting point": "209 to 210"}
{"smiles": "CC(C)(CO)NS(=O)(=O)c1cccc(NC(=O)c2cnn3c(C(F)(F)F)cc(-c4ccc(Cl)cc4)nc23)c1", "melting point": 271}
{"smiles": "CC#Cc1ccc(NC(=O)c2cccnc2Cl)cc1", "melting point": "136 to 138"}
{"smiles": "CCn1c(=O)n(-c2ccc(N3CCn4c3nc3cccnc34)cc2)c2ncccc21", "melting point": "255 to 256"}
{"smiles": "Cc1sc(-c2ccco2)nc1O", "melting point": "173 to 174"}
{"smiles": "C=CCN(C1=NCCN1C)c1c(Cl)cccc1Cl", "melting point": "59 to 61"}
{"smiles": "COc1nccnc1NS(=O)(=O)c1cccc(F)c1", "melting point": "142 to 143"}
{"smiles": "Cc1cc2[nH]c(=O)n(C3CCN(CCCN(c4ccc(F)cc4)c4ccc(F)cc4)CC3)c2cc1C", "melting point": "219 to 220"}
{"smiles": "Cc1cc(C2=NN(c3nccs3)[C@H](C)Cc3cc4c(cc32)OCO4)cc(C)c1[N+](=O)[O-]", "melting point": 167}
{"smiles": "CC(=O)Nc1c(C(=O)c2ccco2)[nH]c2cc(Cl)ccc12", "melting point": "227 to 228"}
{"smiles": "c1ccc(-c2cn[nH]c2)nc1", "melting point": 136}
{"smiles": "O=C(CN1C(=O)c2ccccc2C1=O)NNC(=O)c1ncn2c1[C@@H]1CCN1C(=O)c1sccc1-2", "melting point": "> 260"}
{"smiles": "COc1ccc(C(C(Br)c2ccc(F)cc2)C(F)(F)F)cc1", "note": "(configuration not stated)", "melting point": "73 to 94"}
{"smiles": "CCOc1cc2ncc(C#N)c(Nc3ccc4c(c3)CCC4)c2cc1OCC", "melting point": "85 to 88"}
{"smiles": "COc1ccc(CNc2cc(Cn3c(C(=O)c4cc(C)cc(C)c4)c(C(C)C)c(=O)[nH]c3=O)cc(F)n2)cc1", "melting point": "120 to 122"}
{"smiles": "COc1cc(-c2nc3ccc(OCC(C)N(C)C)cc3n2Cc2ccccc2C(F)(F)F)cc(OC)c1OC", "note": "(configuration not stated)", "melting point": 163}
{"smiles": "O=C(O)CCc1cn(-c2cccnc2)c2ccccc12", "melting point": "147 to 149"}
{"smiles": "CSc1nnc(C(F)F)s1", "melting point": 23}
{"smiles": "CS(=O)(=O)c1c(C(=O)c2cnoc2C2CC2)ccc2c1OC(F)(F)O2", "melting point": "162 to 163"}
{"smiles": "CN(C)C(=O)C(=O)c1c[nH]c2ccc(Br)cc12", "melting point": "189 to 190"}
{"smiles": "Nc1ccc(S(=O)(=O)N2CCN(c3ccc(F)cc3)CC2)cc1", "melting point": "180 to 182"}
{"smiles": "C=C(CCCCCCCCC)C(N)=O", "melting point": "80 to 81"}
{"smiles": "COC(=O)c1c(-c2ccc(C)cc2)ccc2ccccc12", "melting point": "109 to 111"}
{"smiles": "Cn1cc(S(C)=O)c(=O)c2ccc(F)cc21", "note": "(configuration not stated)", "melting point": "226 to 228"}
{"smiles": "C[C@@H](Nc1ccc([N+](=O)[O-])cc1)C(=O)O", "melting point": "238 to 244"}
{"smiles": "NNC(=O)c1sc2cnccc2c1Oc1ccc(C(F)(F)F)cc1", "melting point": "146 to 147"}
{"smiles": "CCCCC(CC)COC(=O)c1cc(OC)c(O)c(OC)c1", "note": "(configuration not stated)", "melting point": "35 to 36"}
{"smiles": "CC(N=C(NN)NN)C(=O)O", "note": "(configuration not stated)", "melting point": "175 to 177"}
{"smiles": "Clc1ccc(-c2ncoc2-c2ccncc2)cc1Cl", "melting point": 142}
